For this assay, the target named is PDE10 (Mus musculus, UniProt Q8CA95). Put plainly: PDE10 enzyme inhibition (IMAP TR-FRET assay). It is filed as biochemical. The following applies: Table 8A. On the procedure: MPDE10A7 Enzyme Activity and Inhibition
Enzyme Activity. An IMAP TR-FRET assay was used to analyze the enzyme activity (Molecular Devices Corp., Sunnyvale Calif.). 5 μL, of serial diluted PDE10A (BPS Bioscience, San Diego, Calif.) or tissue homogenate was incubated with equal volumes of diluted fluorescein labeled cAMP or cGMP for 60 min in 384-well polystyrene assay plates (Corning, Corning, N.Y.) at room temperature. After incubation, the reaction was stopped by adding 60 μL, of diluted binding reagents and was incubated for 3 hours to overnight at room temperature. The plates were read on an Envision (Perkin Elmer, Waltham, Mass.) for time resolved fluorescence resonance energy transfer. The data were analyzed with GraphPad Prism (La Jolla, Calif.).
Enzyme Inhibition. To check the inhibition profile, 5 μL of serial diluted compounds were incubated with 5 μL of diluted PDE10 enzyme (BPS Bioscience, San Diego, Calif.) or tissue homogenate in a 384-well polystyrene assay plate (Corning, Corning, N.Y.) for 30 min at room temperature. […] The reaction was stopped by adding 60 μL of diluted binding reagents and plates were read on an Envision (Perkin Elmer, Waltham, Mass.) for time resolved fluorescence resonance energy transfer. The data were analyzed with GraphPad Prism (La Jolla, Calif.).

Sequence of PDE10 (Q8CA95 whole entry, looked up): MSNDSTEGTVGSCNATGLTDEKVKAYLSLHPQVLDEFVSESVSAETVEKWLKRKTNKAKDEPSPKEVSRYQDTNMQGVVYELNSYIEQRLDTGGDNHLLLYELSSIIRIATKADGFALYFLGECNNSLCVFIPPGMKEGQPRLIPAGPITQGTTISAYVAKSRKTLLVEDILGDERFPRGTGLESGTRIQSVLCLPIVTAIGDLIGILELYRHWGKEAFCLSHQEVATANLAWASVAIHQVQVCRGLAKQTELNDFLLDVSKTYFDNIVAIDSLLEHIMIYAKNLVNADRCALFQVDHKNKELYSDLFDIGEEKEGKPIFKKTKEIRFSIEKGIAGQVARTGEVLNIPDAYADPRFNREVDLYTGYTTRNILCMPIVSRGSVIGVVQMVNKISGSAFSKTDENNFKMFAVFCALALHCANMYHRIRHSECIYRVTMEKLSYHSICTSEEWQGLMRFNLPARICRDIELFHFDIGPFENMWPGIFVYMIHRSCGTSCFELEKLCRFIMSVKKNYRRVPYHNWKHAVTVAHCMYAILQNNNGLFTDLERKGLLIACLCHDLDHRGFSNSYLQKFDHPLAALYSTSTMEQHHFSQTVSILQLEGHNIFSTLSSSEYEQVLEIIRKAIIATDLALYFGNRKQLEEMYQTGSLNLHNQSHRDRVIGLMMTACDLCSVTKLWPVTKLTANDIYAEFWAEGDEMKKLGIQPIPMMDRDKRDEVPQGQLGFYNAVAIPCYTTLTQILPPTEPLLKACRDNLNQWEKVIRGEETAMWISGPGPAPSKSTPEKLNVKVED

A word on the IC50: it is the point on the concentration scale where inhibition reaches its midpoint. Read a low IC50 as greater potency in that assay. Take “1-(4-(3-((1-(quinolin-2-yl)azetidin-3-yl)oxy)pyrazin-2-yl)phenyl)ethanone [Example 10.26]”: the IC50 came out at 24.4 nM. This lies in the double-digit nanomolar range.

The values are drawn from patent US8497265B2, “Heteroaryloxyheterocyclyl compounds as PDE10 inhibitors” (Amgen Inc., priority 2010, dated 2013).
